Tests used:
Set-up in all cases: species or system BALB/c nude mice
[1] = test system: human liver cancer HepG2 cells; assay: In vivo pharmacodynamics, liver cancer HepG2 CDX model
Experimental: Experiment Instruction: BALB/c nude mice were subcutaneously inoculated with human liver cancer HepG2 cells to establish a subcutaneous transplantation tumor model of human liver cancer. […] The efficacy was evaluated according to the relative tumor inhibition rate TGI (%), and the safety was evaluated according to the change in body weight and the death of the animals.

[2] = test system: HuPrime model LI6643 human liver cancer; assay: In vivo pharmacodynamics, liver cancer LI6643 PDX model (Compound A, Sorafenib; section 4.8); conditions: for Tumor volume: 20-30 mg/kg p.o.
Experimental: Experiment Instruction: BALB/c nude mice were subcutaneously inoculated with HuPrime® model LI6643 tumor blocks to establish a subcutaneous transplantation tumor model of human liver cancer. […] The efficacy was evaluated according to the relative tumor inhibition rate TGI (%), and the safety was evaluated according to the change in body weight and the death of the animals.

[3] = test system: human liver cancer LI6652; assay: In vivo pharmacodynamics, liver cancer LI6652 subcutaneous xenograft PDX model; conditions: for Tumor volume: 30 mg/kg p.o.
Experimental: The pharmacodynamic analysis of each group in liver cancer LI6652 model was performed on Day 31 after administration, and the results were shown in Table 12.

[4] = test system: human liver cancer LI6652; assay: as above; conditions: 30 mg/kg p.o. QDx21; Day 28
[5] = test system: HuPrime model LI1005 human liver cancer; assay: In vivo pharmacodynamics, liver cancer LI1005 PDX model; conditions: for Tumor volume: 30 mg/kg p.o.
[6] = test system: HuPrime model LI6664 human liver cancer; assay: In vivo pharmacodynamics, liver cancer LI6664 PDX model; conditions: for Size of tumor volume: Group2, Sorafenib 30 mg/kg
Experimental: Experiment Instruction: BALB/c nude mice were subcutaneously inoculated with HuPrime® model LI6664 tumor blocks to establish a subcutaneous transplantation tumor model of human liver cancer. […] Among them, 7.5% anhydrous ethanol+7.5% polyoxyethylene (35) castor oil+85% glucose injection D5W (pH 7.4) vehicle control group was administered by tail vein once a week for 3 consecutive weeks; test drug AST-3424 0.3 mg/kg and 1 mg/kg groups were administered by tail vein injection once a day for 5 consecutive days, followed by 2 days off, followed by 2 weeks off, and then continuously administered for 5 consecutive days; the test drug AST-3424 1.25 mg/kg group was administered by tail vein injection once a week for 2 consecutive weeks, followed by one week off, and then continuously administered for 2 consecutive weeks, Compound A 0.5 mg/kg, 1.5 mg/kg, and 4.5 mg/kg groups were administered by tail vein injection once a week for three consecutive weeks, followed by 1 week off, and then administered for three consecutive weeks. […] The efficacy was evaluated according to the relative tumor inhibition rate TGI (%), and the safety was evaluated according to the change in body weight and the death of the animals.

[7] = test system: HuPrime model LI6643 human liver cancer; assay: In vivo pharmacodynamics, liver cancer LI6643 PDX model (Compound A, Sorafenib, AST-3424; section 4.7); conditions: for Tumor volume: 30 mg/kg p.o.
Experimental: Experiment Instruction: BALB/c nude mice were subcutaneously inoculated with HuPrime® model LI6643 tumor blocks to establish a subcutaneous grafted tumor model of human liver cancer. […] The efficacy was evaluated according to the relative tumor inhibition rate TGI (%), and the safety was evaluated according to the change in body weight and the death of the animals.

[8] = test system: HuPrime model LI6280 human liver cancer; assay: In vivo pharmacodynamics, liver cancer LI6280 PDX model; conditions: for Tumor volume: 30 mg/kg p.o.
Experimental: Experiment Instruction: BALB/c nude mice were subcutaneously inoculated with HuPrime® model LI6280 tumour blocks to establish a subcutaneous transplantation tumour model of human liver cancer. […] The efficacy was evaluated according to the relative tumor inhibition rate TGI (%), and the safety was evaluated according to the change in body weight and the death of the animals.

[9] = 30 mg/kg, QDx21 Days, p.o., Day 53
[10] = 20-30 mg/kg p.o. QD (30 mg/kg day0-day11, 20 mg/kg day 12-day20), Day 35

Q: `CNC(=O)c1cc(Oc2ccc(NC(=O)Nc3ccc(Cl)c(C(F)(F)F)c3)cc2)ccn1` [Sorafenib, reference compound] was tested. Which weight loss ([1]; 30 mg/kg p.o.) did it give?
A: caused significant weight loss

Q: What about the Tumor volume ([1]; 30 mg/kg p.o., Day 19) of the same molecule?
A: 189.76 mm^3

Q: And the Tumor volume ([1]; 30 mg/kg p.o., Day 22)?
A: 291.62 mm^3

Q: And the Tumor volume ([1]; 30 mg/kg p.o., Day 24)?
A: 311.64 mm^3

Q: What about the Tumor volume ([1]; 30 mg/kg p.o., Day 27) of the same molecule?
A: 340.46 mm^3

Q: What about the Tumor volume ([1]; 30 mg/kg p.o., Day 31) of the same molecule?
A: 398.84 mm^3

Q: What about the Tumor volume ([1]; 30 mg/kg p.o., Day 36) of the same molecule?
A: 491.06 mm^3

Q: What about the Tumor volume ([1]; 30 mg/kg p.o., Day 39) of the same molecule?
A: 509.41 mm^3

Q: And the Tumor volume ([1]; 30 mg/kg p.o., Day 42)?
A: 657.51 mm^3

Q: What about the Tumor volume ([1]; 30 mg/kg p.o., Day 46) of the same molecule?
A: 816.63 mm^3

Q: What about the Tumor volume ([1]; 30 mg/kg p.o., Day 49) of the same molecule?
A: 1012.20 mm^3

Q: And the Tumor volume ([1]; 30 mg/kg p.o., Day 53)?
A: 1484.78 mm^3

Q: And the “T/C (%)” value [1, 9]?
A: 65.95%

Q: What about the “TGI (%)” value [1, 9] of the same molecule?
A: 34.05%

Q: And the “Tumor volume (x ± S)” value ([1]; 30 mg/kg, QDx21 Days, p.o., Day 53, in mm³ (unit assumed))?
A: 1484.78 ± 304.89

Q: And the “T/C (%)” value [2, 10]?
A: 21.81%

Q: And the “Tumor volume (x ± S)” value [2, 10]?
A: 392.20 ± 64.05

Q: What about the Tumor volume ([2]; Day 0) of the same molecule?
A: 126.16 mm^3

Q: And the Tumor volume ([2]; Day 4)?
A: 163.51 mm^3

Q: And the Tumor volume ([2]; Day 7)?
A: 205.85 mm^3

Q: And the Tumor volume ([2]; Day 11)?
A: 235.50 mm^3

Q: And the Tumor volume ([2]; Day 14)?
A: 279.42 mm^3

Q: What about the Tumor volume ([2]; Day 18) of the same molecule?
A: 291.41 mm^3

Q: What about the Tumor volume ([2]; Day 21) of the same molecule?
A: 287.76 mm^3

Q: And the Tumor volume ([2]; Day 25)?
A: 326.85 mm^3

Q: What about the Tumor volume ([2]; Day 28) of the same molecule?
A: 346.56 mm^3

Q: And the Tumor volume ([2]; Day 32)?
A: 385.09 mm^3

Q: And the Tumor volume ([2]; Day 35)?
A: 392.20 mm^3

Q: What about the Tumor volume ([2]; Day 39) of the same molecule?
A: 431.87 mm^3

Q: What about the Tumor volume ([2]; Day 42) of the same molecule?
A: 451.48 mm^3

Q: And the Tumor volume ([2]; Day 46)?
A: 521.44 mm^3

Q: What about the Tumor volume ([2]; Day 49) of the same molecule?
A: 585.72 mm^3

Q: What about the Tumor volume ([2]; Day 53) of the same molecule?
A: 622.46 mm^3

Q: What about the “T/C (%)” value ([3]; 30 mg/kg p.o. QDx21, Day 28) of the same molecule?
A: 17.04%

Q: And the “TGI (%)” value ([3]; 30 mg/kg p.o. QDx21, Day 28)?
A: 82.96%

Q: And the Tumor volume ([3]; Day 0)?
A: 125.84 mm^3

Q: What about the Tumor volume ([3]; Day 3) of the same molecule?
A: 146.95 mm^3

Q: What about the Tumor volume ([3]; Day 7) of the same molecule?
A: 196.51 mm^3

Q: And the Tumor volume ([3]; Day 10)?
A: 212.41 mm^3

Q: And the Tumor volume ([3]; Day 14)?
A: 217.19 mm^3

Q: And the Tumor volume ([3]; Day 17)?
A: 191.72 mm^3

Q: What about the Tumor volume ([3]; Day 21) of the same molecule?
A: 178.69 mm^3

Q: What about the Tumor volume ([3]; Day 24) of the same molecule?
A: 209.42 mm^3

Q: What about the Tumor volume ([3]; Day 28) of the same molecule?
A: 315.93 mm^3

Q: What about the Tumor volume ([3]; Day 31) of the same molecule?
A: 441.67 mm^3

Q: And the “Tumor volume (x ± S)” value [4]?
A: 315.93 ± 81.35

Q: What about the “T/C (%)” value ([5]; 30 mg/kg p.o. QDx21, Day 35) of the same molecule?
A: 28.26%

Q: What about the “TGI (%)” value ([5]; 30 mg/kg p.o. QDx21, Day 35) of the same molecule?
A: 71.74%

Q: What about the “Tumor volume (x ± S)” value ([5]; 30 mg/kg p.o. QDx21, Day 35, in mm³ (unit assumed)) of the same molecule?
A: 294.09 ± 60.93

Q: What about the Tumor volume ([5]; Day 0) of the same molecule?
A: 102.89 mm^3

Q: And the Tumor volume ([5]; Day 3)?
A: 121.64 mm^3

Q: What about the Tumor volume ([5]; Day 7) of the same molecule?
A: 136.21 mm^3

Q: And the Tumor volume ([5]; Day 10)?
A: 136.21 mm^3

Q: What about the Tumor volume ([5]; Day 14) of the same molecule?
A: 136.89 mm^3

Q: And the Tumor volume ([5]; Day 17)?
A: 140.09 mm^3

Q: What about the Tumor volume ([5]; Day 21) of the same molecule?
A: 142.56 mm^3

Q: And the Tumor volume ([5]; Day 24)?
A: 161.17 mm^3

Q: What about the Tumor volume ([5]; Day 28) of the same molecule?
A: 200.97 mm^3

Q: And the Tumor volume ([5]; Day 31)?
A: 227.65 mm^3

Q: What about the Tumor volume ([5]; Day 35) of the same molecule?
A: 294.09 mm^3

Q: What about the “Size of tumor volume” value ([6]; Day 0) of the same molecule?
A: 107.93 mm^3

Q: And the “Size of tumor volume” value ([6]; Day 4)?
A: 170.15 mm^3

Q: What about the “Size of tumor volume” value ([6]; Day 7) of the same molecule?
A: 197.93 mm^3

Q: What about the “Size of tumor volume” value ([6]; Day 11) of the same molecule?
A: 218.34 mm^3

Q: And the “Size of tumor volume” value ([6]; Day 14)?
A: 321.83 mm^3

Q: What about the “Size of tumor volume” value ([6]; Day 18) of the same molecule?
A: 391.52 mm^3

Q: And the “Size of tumor volume” value ([6]; Day 21)?
A: 481.85 mm^3

Q: And the “Size of tumor volume” value ([6]; Day 25)?
A: 730.68 mm^3

Q: What about the “Size of tumor volume” value ([6]; Day 28) of the same molecule?
A: 1003.42 mm^3

Q: What about the “Size of tumor volume” value ([6]; Day 32) of the same molecule?
A: 1333.07 mm^3

Q: What about the “Size of tumor volume” value ([6]; Day 35) of the same molecule?
A: 1595.00 mm^3

Q: What about the “Size of tumor volume” value ([6]; Day 39) of the same molecule?
A: 2102.94 mm^3

Q: What about the “Size of tumor volume” value ([6]; Day 42) of the same molecule?
A: 2729.04 mm^3

Q: And the “Size of tumor volume” value ([6]; Day 46)?
A: 2892.15 mm^3

Q: What about the “Size of tumor volume” value ([6]; Day 49) of the same molecule?
A: 2600.00 mm^3

Q: What about the “T/C (%)” value ([6]; Sorafenib 30 mg/kg, Day 28) of the same molecule?
A: 71.01%

Q: And the “TGI (%)” value ([6]; Sorafenib 30 mg/kg, Day 28)?
A: 28.99%

Q: What about the “Tumor volume (x ± S)” value ([6]; Sorafenib 30 mg/kg, Day 28, mean ± standard error, in mm³ (unit assumed)) of the same molecule?
A: 1003.42 ± 128.88

Q: And the weight loss ([6]; treatment period, tested doses)?
A: weight loss in individual mice

Q: And the “T/C (%)” value ([7]; 30 mg/kg p.o. QDx21, Day 21)?
A: 37.88%

Q: And the “TGI (%)” value ([7]; 30 mg/kg p.o. QDx21, Day 21)?
A: 62.12%

Q: And the “Tumor volume (x ± S)” value ([7]; 30 mg/kg p.o. QDx21, Day 21, in mm³)?
A: 214.75 ± 31.53

Q: What about the Tumor volume ([7]; Day 0) of the same molecule?
A: 124.67 mm^3

Q: And the Tumor volume ([7]; Day 3)?
A: 170.03 mm^3

Q: And the Tumor volume ([7]; Day 7)?
A: 185.13 mm^3

Q: And the Tumor volume ([7]; Day 10)?
A: 193.95 mm^3

Q: What about the Tumor volume ([7]; Day 14) of the same molecule?
A: 189.87 mm^3

Q: And the Tumor volume ([7]; Day 17)?
A: 171.25 mm^3

Q: What about the Tumor volume ([7]; Day 21) of the same molecule?
A: 214.75 mm^3

Q: What about the Tumor volume ([7]; Day 24) of the same molecule?
A: 238.48 mm^3

Q: And the Tumor volume ([7]; Day 28)?
A: 309.08 mm^3

Q: And the “T/C (%)” value ([8]; 30 mg/kg p.o. QDx21, Day 17)?
A: 49.65%

Q: And the “TGI (%)” value ([8]; 30 mg/kg p.o. QDx21, Day 17)?
A: 50.35%

Q: What about the “Tumor volume (x ± S)” value ([8]; 30 mg/kg p.o. QDx21, Day 17, in mm³ (unit assumed)) of the same molecule?
A: 1076.45 ± 230.21

Q: What about the Tumor volume ([8]; Day 0) of the same molecule?
A: 103.93 mm^3

Q: And the Tumor volume ([8]; Day 3)?
A: 168.82 mm^3

Q: And the Tumor volume ([8]; Day 7)?
A: 269.83 mm^3

Q: What about the Tumor volume ([8]; Day 10) of the same molecule?
A: 439.29 mm^3

Q: And the Tumor volume ([8]; Day 14)?
A: 731.99 mm^3

Q: And the Tumor volume ([8]; Day 17)?
A: 1076.45 mm^3

Q: What about the Tumor volume ([8]; Day 21) of the same molecule?
A: 1241.19 mm^3

Q: And the Tumor volume ([8]; Day 24)?
A: 1504.89 mm^3

Q: What about the Tumor volume ([8]; Day 28) of the same molecule?
A: 2218.52 mm^3

Q: And the Tumor volume ([8]; Day 31)?
A: 2313.01 mm^3

From US20260159536A1, “AKR1C3-ACTIVATED DNA ALKYLATING AGENT, AND MEDICAL APPLICATION THEREOF” (ASCENTAWITS PHARMACEUTICALS, LTD., priority 2021, published 2026)
